Where only a bound is given, the exact number is not on record here.

A word on the Ki: it is a measure of affinity in units of concentration, obtained from inhibition or displacement. Read a high Ki as a looser hold on the target.

The target in this assay is HIV protease (Human immunodeficiency virus type 1 group M subtype B, UniProt P04585). Nature of the assay: biochemical.
Regarding `CCCN[C@@H](Cc1ccc2ccccc2c1)C(=O)NCCCC[C@@H](CO)N(CC(C)C)S(=O)(=O)c1ccc(N)cc1` [Example 64, (2S,5S)-N-{5-[(4-Amino-benzenesulfonyl)-isobutyl-amino]-6-hydroxy-hexyl}-3-naphthalen-2-yl-2-propylamino-propionamide], the Ki was 4.6 nM. This counts as single-digit nanomolar.
For the compound `CCN[C@@H](Cc1ccc2ccccc2c1)C(=O)NCCCC[C@@H](CO)N(CC(C)C)S(=O)(=O)c1ccc(N)cc1` [Example 65, (2S,5S)-N-{5-[(4-Amino-benzenesulfonyl)-isobutyl-amino]-6-hydroxy-hexyl}-2-ethylamino-3-naphthalen-2-yl-propionamide], the Ki stood at 6.2 nM.
Under `CCCCN[C@@H](Cc1ccc2ccccc2c1)C(=O)NCCCC[C@@H](CO)N(CC(C)C)S(=O)(=O)c1ccc(N)cc1` [Example 68, (2S,5S)-N-{5-[(4-Amino-benzenesulfonyl)-isobutyl-amino]-6-hydroxy-hexyl}-2-butylamino-3-naphthalen-2-yl-propionamide] stands 5.8 nM; under `CC(C)CN([C@H](CO)CCCCNC(=O)[C@H](Cc1ccc2ccccc2c1)NCC(C)(C)C)S(=O)(=O)c1ccc(N)cc1` [Example 69, (2S,5S)-N-{5-[(4-Amino-benzenesulfonyl)-isobutyl-amino]-6-hydroxy-hexyl}-2-(2,2-dimethyl-propylamino)-3-naphthalen-2-yl-propionamide], 22 nM; under `CC(C)CN([C@H](CO)CCCCNC(=O)[C@H](Cc1ccc2ccccc2c1)NCc1ccccn1)S(=O)(=O)c1ccc(N)cc1` [Example 70, (2S,5S)-N-{5-[(4-Amino-benzenesulfonyl)-isobutyl-amino]-6-hydroxy-hexyl}-3-naphthalen-2-yl-2-[(pyridin-2-ylmethyl)-amino]-propionamide], 4.9 nM.
`CC(C)CN([C@H](CO)CCCCNC(=O)[C@@H](N)C(c1ccccc1)c1ccccc1)S(=O)(=O)c1ccc(N)cc1` [Example 72, (2S,5S)-2-Amino-N-{5-[(4-amino-benzenesulfonyl)-isobutyl-amino]-6-hydroxy-hexyl}-3,3-diphenyl-propionamide] returned a Ki of 7.5 nM.
With `CC(C)CN([C@H](CO)CCCCNC(=O)[C@@H](N)Cc1ccc2ccccc2c1)S(=O)(=O)c1ccc(F)c(N)c1` [Example 81, (2S,5S)-2-Amino-N-{5-[(3-amino-4-fluoro-benzenesulfonyl)-isobutyl-amino]-6-hydroxy-hexyl}-3-naphthalen-2-yl-propionamide], the Ki is under 3.8 nM.
`COC(=O)N[C@@H](Cc1ccc2ccccc2c1)C(=O)NCCCC[C@@H](CO)N(CC(C)C)S(=O)(=O)c1ccc(F)c(N)c1` [Example 82, (1S,5S)-(1-{5-[(3-Amino-4-fluoro-benzenesulfonyl)-isobutyl-amino]-6-hydroxy-hexylcarbamoyl}-2-naphthalen-2-yl-ethyl)-carbamic Acid Methyl Ester] registered a Ki of under 3.8 nM.
As for `CC(C)CN([C@H](CO)CCCCNC(=O)[C@H](Cc1ccc2ccccc2c1)NC(=O)c1cccnc1)S(=O)(=O)c1ccc(F)c(N)c1` [Example 83], the figure is under 3.8 nM; as for `CC(C)CN([C@H](CO)CCCCNC(=O)[C@H](Cc1ccc2ccccc2c1)NC(=O)c1ccncc1)S(=O)(=O)c1ccc(F)c(N)c1` [Example 84, (1S,5S)-N-(1-{5-[(3-Amino-4-fluoro-benzenesulfonyl)-isobutyl-amino]-6-hydroxy-hexylcarbamoyl}-2-naphthalen-2-yl-ethyl)-isonicotinamide], under 3.8 nM; as for `CC(C)CN([C@H](CO)CCCCNC(=O)[C@H](Cc1ccc2ccccc2c1)NC(=O)C1CCOC1)S(=O)(=O)c1ccc(F)c(N)c1` (stereo partly drawn) [Example 85, (1S,5S)-Tetrahydro-furan-3-carboxylic Acid (1-{5-[(3-Amino-4-fluoro-benzenesulfonyl)-isobutyl-amino]-6-hydroxy-hexylcarbamoyl}-2-naphthalen-2-yl-ethyl)-amide], under 3.8 nM.
Take `CC(C)CN([C@H](CO)CCCCNC(=O)[C@H](Cc1ccc2ccccc2c1)NC(=O)N(C)C)S(=O)(=O)c1ccc(F)c(N)c1` [Example 86, (2S,5S)-N-{5-[(3-Amino-4-fluoro-benzenesulfonyl)-isobutyl-amino]-6-hydroxy-hexyl}-2-(3,3-dimethyl-ureido)-3-naphthalen-2-yl-propionamide]: the inhibition constant Ki is under 3.8 nM.
In the case of `CC(C)CN([C@H](CO)CCCCNC(=O)[C@H](Cc1ccc2ccccc2c1)NC(=O)C1CC1)S(=O)(=O)c1ccc(F)c(N)c1` [Example 87, (1S,5S)-Cyclopropanecarboxylic Acid (1-{5-[(3-Amino-4-fluoro-benzenesulfonyl)-isobutyl-amino]-6-hydroxy-hexylcarbamoyl}-2-naphthalen-2-yl-ethyl)-amide], the Ki is under 3.8 nM.
With `CC(C)CN([C@H](CO)CCCCNC(=O)[C@H](Cc1ccc2ccccc2c1)NC(=O)C1CCCCC1)S(=O)(=O)c1ccc(F)c(N)c1` [Example 88, (1S,5S)-Cyclohexanecarboxylic Acid (1-{5-[(3-Amino-4-fluoro-benzenesulfonyl)-isobutyl-amino]-6-hydroxy-hexylcarbamoyl}-2-naphthalen-2-yl-ethyl)-amide], the Ki is under 3.8 nM.
The compound `CC(=O)N[C@@H](Cc1ccc2ccccc2c1)C(=O)NCCCC[C@@H](CO)N(CC(C)C)S(=O)(=O)c1ccc(F)c(N)c1` [Example 89, (2S,5S)-2-Acetylamino-N-{5-[(3-amino-4-fluoro-benzenesulfonyl)-isobutyl-amino]-6-hydroxy-hexyl}-3-naphthalen-2-yl-propionamide] came in with an inhibition constant (Ki) of under 3.8 nM.
On to `CC(C)CN([C@H](CO)CCCCNC(=O)[C@H](Cc1ccc2ccccc2c1)NC(=O)OC(C)(C)C)S(=O)(=O)c1ccc(F)c(N)c1` [Example 90, (1S,5S)-(1-{5-[(3-Amino-4-fluoro-benzenesulfonyl)-isobutyl-amino]-6-hydroxy-hexylcarbamoyl}-2-naphthalen-2-yl-ethyl)-carbamic Acid tert-Butyl Ester], for which affinity was put at a Ki of 4 nM. That is a single-digit nanomolar value.
Under `CC(C)CN([C@H](CO)CCCCNC(=O)[C@H](Cc1ccc2ccccc2c1)NC(=O)OC(C)(C)C)S(=O)(=O)c1ccc(N)c(F)c1` [Example 91, (1S,5S)-(1-{5-[(4-Amino-3-fluoro-benzenesulfonyl)-isobutyl-amino]-6-hydroxy-hexylcarbamoyl}-2-naphthalen-2-yl-ethyl)-carbamic Acid tert-Butyl Ester] stands under 3.8 nM; under `CC(C)CN([C@H](CO)CCCCNC(=O)[C@@H](NC(=O)N(C)C)C(c1ccccc1)c1ccccc1)S(=O)(=O)c1ccc(N)cc1` [Example 94, (2S,5S)-N-{5-[(4-Amino-benzenesulfonyl)-isobutyl-amino]-6-hydroxy-hexyl}-2-(3,3-dimethyl-ureido)-3,3-diphenyl-propionamide], under 3.8 nM.
Under `CC(C)CN([C@H](CO)CCCCNC(=O)[C@@H](NC(=O)OCc1ccccn1)C(c1ccccc1)c1ccccc1)S(=O)(=O)c1ccc(N)cc1` [Example 95, (1S,5S)-(1-{5-[(4-Amino-benzenesulfonyl)-isobutyl-amino]-6-hydroxy-hexylcarbamoyl}-2,2-diphenyl-ethyl)-carbamic Acid Pyridin-2-ylmethyl Ester] stands under 3.8 nM.
In turn, `CC(C)CN([C@H](CO)CCCCNC(=O)[C@@H](NC(=O)c1ccccn1)C(c1ccccc1)c1ccccc1)S(=O)(=O)c1ccc(N)cc1` [Example 96, (1S,5S)-Pyridine-2-carboxylic Acid (1-{5-[(4-Amino-benzenesulfonyl)-isobutyl-amino]-6-hydroxy-hexylcarbamoyl}-2,2-diphenyl-ethyl)-amide] returned a Ki of under 3.8 nM.
As for `CC(C)CN([C@H](CO)CCCCNC(=O)[C@@H](NC(=O)c1cnccn1)C(c1ccccc1)c1ccccc1)S(=O)(=O)c1ccc(N)cc1` [Example 97, (1S,5S)-Pyrazine-2-carboxylic Acid (1-{5-[(4-Amino-benzenesulfonyl)-isobutyl-amino]-6-hydroxy-hexylcarbamoyl}-2,2-diphenyl-ethyl)-amide], the figure is under 3.8 nM; as for `CC(C)CN([C@H](CO)CCCCNC(=O)[C@@H](NC(=O)c1ccc[nH]1)C(c1ccccc1)c1ccccc1)S(=O)(=O)c1ccc(N)cc1` [Example 98, (1S,5S)-Pyrrole-2-carboxylic Acid (1-{5-[(4-Amino-benzenesulfonyl)-isobutyl-amino]-6-hydroxy-hexylcarbamoyl}-2,2-diphenyl-ethyl)-amide], under 3.8 nM.
Under `CC(C)CN([C@H](CO)CCCCNC(=O)[C@@H](NC(=O)Cc1cccnc1)C(c1ccccc1)c1ccccc1)S(=O)(=O)c1ccc(N)cc1` [Example 99, (2S,5S)-N-{5-[(4-Amino-benzenesulfonyl)-isobutyl-amino]-6-hydroxy-hexyl}-3,3-diphenyl-2-(2-pyridin-3-yl-acetylamino)-propionamide] stands under 3.8 nM.
Under `CC(C)CN([C@H](CO)CCCCNC(=O)[C@@H](NC(=O)OCc1cccnc1)C(c1ccccc1)c1ccccc1)S(=O)(=O)c1ccc(N)cc1` [Example 100, (1S,5S)-(1-{5-[(4-Amino-benzenesulfonyl)-isobutyl-amino]-6-hydroxy-hexylcarbamoyl}-2,2-diphenyl-ethyl)-carbamic Acid Pyridin-3-ylmethyl Ester] stands under 3.8 nM; under `CC(C)CN([C@H](CO)CCCCNC(=O)[C@@H](NC(=O)OCc1ccncc1)C(c1ccccc1)c1ccccc1)S(=O)(=O)c1ccc(N)cc1` [Example 101, (1S,5S)-(1-{5-[(4-Amino-benzenesulfonyl)-isobutyl-amino]-6-hydroxy-hexylcarbamoyl}-2,2-diphenyl-ethyl)-carbamic Acid Pyridin-4-ylmethyl Ester], under 3.8 nM.
In the case of `CC(C)CN([C@H](CO)CCCCNC(=O)[C@@H](NC(=O)c1ccc(O)cc1)C(c1ccccc1)c1ccccc1)S(=O)(=O)c1ccc(N)cc1` [Example 102, (1S,5S)-N-(1-{5-[(4-Amino-benzenesulfonyl)-isobutyl-amino]-6-hydroxy-hexylcarbamoyl}-2,2-diphenyl-ethyl)-4-hydroxy-benzamide], the Ki was under 3.8 nM.
On to `CC(C)CN([C@H](CO)CCCCNC(=O)[C@@H](NC(=O)c1ccc(O)c([N+](=O)[O-])c1)C(c1ccccc1)c1ccccc1)S(=O)(=O)c1ccc(N)cc1` [Example 103, (1S,5S)-N-(1-{5-[(4-Amino-benzenesulfonyl)-isobutyl-amino]-6-hydroxy-hexylcarbamoyl}-2,2-diphenyl-ethyl)-4-hydroxy-3-nitro-benzamide], for which the Ki is under 3.8 nM.

Source of the values: patent publication US6632816B1, “Aromatic derivatives as HIV aspartyl protease inhibitors” (Pharmacor Inc., priority 2002, dated 2003).
